This assay has as its target T1, CDK2 (Homo sapiens, UniProt P24941).
T1 construct: CDK2/GST-Cyclin E kinase complex produced in baculovirus expression system; with Cyclin E (GST-Cyclin E)
The experiment in a line: radiometric kinase assay (gamma-32P-ATP, histone H1 substrate) with purified recombinant CDK2/cyclin E. Format: biochemical.

pIC50: −log10 of the molar value.

As usually defined, the pIC50 is the IC50 on a negative log10 scale, so that one unit is a factor of ten. Regarding `O=c1[nH]c2c(nc3ccccn32)c2ccccc12` [13-1-a], the pIC50 was ~4.00. The result for `O=c1[nH]c2c(nc3ccccn32)c2cccc(O)c12` [13-1-e] reads 5.70 to 6.00.

Source of the values: paper PMC2633036, “Identifying Tumor Cell Growth Inhibitors by Combinatorial Chemistry and Zebrafish Assays” (PLoS ONE, 2009).
